In the supplement of paper PMC8967900:

How the values were obtained:
Assay in all cases: selective drug sensitivity score (sDSS, relative to normal bone marrow) (sDSS (score)); higher = more potent and effective on the cell line relative to normal bone marrow cells
Conditions in all cases: 72 h
HPB-ALL = system: HPB-ALL
NALM-16 = system: NALM-16
MHH-CALL-4 = system: MHH-CALL-4
MN-60 = system: MN-60
LC4-1 = system: LC4-1
KASUMI-10 = system: KASUMI-10
P12-ICHIKAWA = system: P12-ICHIKAWA
COG-LL-317 = system: COG-LL-317
KASUMI-9 = system: KASUMI-9
SUP-B15 = system: SUP-B15
MHH-CALL-2 = system: MHH-CALL-2
COG-LL-332h = system: COG-LL-332h
COG-LL-355h = system: COG-LL-355h
COG-LL-394h = system: COG-LL-394h
RCH-ACV = system: RCH-ACV
MOLT-16 = system: MOLT-16
NALM-6 = system: NALM-6
PF-382 = system: PF-382
KARPAS-45 = system: KARPAS-45
ALL-PO = system: ALL-PO
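Further: ALL cell lines in 384-well plates, five doses spanning 10,000-fold, each plate scaled between vehicle and 100 µmol/L benzalkonium chloride controls, sDSS an adapted area-under-curve metric.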

Row | SMILES | selective drug sensitivity score (HPB-ALL) | selective drug sensitivity score (NALM-16) | selective drug sensitivity score (MHH-CALL-4) | selective drug sensitivity score (MN-60) | selective drug sensitivity score (LC4-1) | selective drug sensitivity score (KASUMI-10) | selective drug sensitivity score (P12-ICHIKAWA) | selective drug sensitivity score (COG-LL-317) | selective drug sensitivity score (KASUMI-9) | selective drug sensitivity score (SUP-B15) | selective drug sensitivity score (MHH-CALL-2) | selective drug sensitivity score (COG-LL-332h) | selective drug sensitivity score (COG-LL-355h) | selective drug sensitivity score (COG-LL-394h) | selective drug sensitivity score (RCH-ACV) | selective drug sensitivity score (MOLT-16) | selective drug sensitivity score (NALM-6) | selective drug sensitivity score (PF-382) | selective drug sensitivity score (KARPAS-45) | selective drug sensitivity score (ALL-PO)
1 | CN1CC[C@H](c2c(O)cc(O)c3c(=O)cc(-c4ccccc4Cl)oc23)[C@H](O)C1 [Alvocidib] (top concentration 10000 nM) | -3.1 | -3.6 | -3.8 | -3.9 | -3.3 | -2.9 | -2.1 | 1.7 | -0.7 | 0.1 | -3.5 | -0.3 | -0.1 | -2.5 | 2.7 | 0.7 | -1.2 | -3.3 | 2 | -6.7
2 | CC(C)c1c(C(=O)Nc2ccccc2)c(-c2ccccc2)c(-c2ccc(F)cc2)n1CC[C@@H](O)C[C@@H](O)CC(=O)O [Atorvastatin] (top concentration 10000 nM) | -1.5 | -3.7 | 0.1 | -2.5 | 4.9 | -1.8 | 0.7 | 8 | -3.7 | 0.8 | 0 | 1.2 | 4.2 | -1.2 | -1 | 2 | 1.4 | -1 | 3.5 | 1.1
3 | Nc1ncn([C@@H]2O[C@H](CO)[C@@H](O)[C@H]2O)c(=O)n1 [Azacitidine] (top concentration 10000 nM) | 7.94 | 1.84 | 6.14 | 0.84 | 6.04 | 3.64 | 3.74 | 7.74 | 5.14 | 11.6 | 5.84 | 3.64 | 5.14 | -2.26 | 5.24 | 7.14 | 3.34 | 4.44 | -1.16 | 6.94
4 | Cc1cc(-c2nc(-c3ccc(OC(F)(F)F)cc3)no2)nn1Cc1ccnc(N2CCN(C3CC3)CC2)c1 [BAY_87-2243] (top concentration 1000 nM) | 8.54 | 4.24 | 11.9 | 25.6 | 3.84 | -6.66 | 23.9 | -0.96 | 5.24 | 14.1 | 8.64 | 5.54 | 10.8 | 23.5 | 14.4 | 22.9 | 10 | 16.9 | 16.5 | 5.54
5 | O=C(Nc1cccc(Nc2ncc(Br)c(NCCc3cnc[nH]3)n2)c1)N1CCCC1 [BX-912] (top concentration 10000 nM) | -0.34 | -0.14 | 3.06 | -1.44 | 12.3 | 12.8 | 10.2 | 9.46 | 10.5 | 11.9 | 2.86 | 7.56 | 1.36 | -2.24 | 13.3 | 9.06 | 6.46 | 5.06 | 3.56 | 14
6 | C=C(c1ccc(C(=O)O)cc1)c1cc2c(cc1C)C(C)(C)CCC2(C)C [Bexarotene] (top concentration 10000 nM) | -5.1 | -4.1 | 3.3 | -5.3 | 0.2 | -1.9 | -0.5 | -5.1 | -3.4 | -4.8 | 3.5 | -1.7 | -5.1 | -5.3 | -5.1 | 1.7 | -3.4 | -4.6 | -1.8 | 3.7
7 | Cn1cnc2c(F)c(Nc3ccc(Br)cc3F)c(C(=O)NOCCO)cc21 [Binimetinib] (top concentration 1000 nM) | -2.22 | -0.12 | 4.98 | -2.22 | 2.18 | 0.28 | -0.42 | -2.12 | -0.92 | 11.2 | 5.28 | -2.22 | 5.58 | 0.48 | -2.22 | -0.42 | 5.78 | -1.82 | -1.82 | 3.08
8 | COc1cc(N2CCC(N3CCN(C)CC3)CC2)ccc1Nc1ncc(Cl)c(Nc2ccccc2P(C)(C)=O)n1 [Brigatinib] (top concentration 1000 nM) | 3.06 | -3.14 | -3.34 | -2.54 | -0.94 | 4.76 | -3.34 | -2.34 | 3.56 | -3.34 | 7.66 | -3.34 | 2.86 | -1.84 | 8.86 | -3.34 | 0.26 | -2.84 | -1.74 | 4.16
9 | CC1=NN(c2ccc(C(=O)O)cc2)C(=O)C1=Cc1ccc(-c2cc(C)c(C)cc2[N+](=O)[O-])o1 [C646] (top concentration 25000 nM) | 5.74 | -2.06 | -2.06 | -2.06 | 1.84 | -0.36 | -2.06 | 1.74 | 4.74 | 5.04 | -2.06 | 1.74 | 4.44 | -0.66 | 1.94 | 4.84 | -2.06 | 0.64 | 1.74 | 5.04
10 | CCN1C(=O)CNc2ncc(-c3ccc(-c4nc[nH]n4)nc3C)nc21 [CC-115] (top concentration 10000 nM) | 1.84 | 1.34 | 7.34 | 1.54 | 4.54 | 0.14 | 1.04 | 0.54 | 4.54 | 2.34 | 8.34 | 2.54 | 1.44 | -2.06 | 17.5 | 4.74 | 1.24 | 2.14 | 1.34 | 4.34
11 | Cc1noc2c1-c1ccccc1C(c1ccc(Cl)cc1)=N[C@H]2CC(N)=O [CPI-0610] (top concentration 10000 nM) | 1 | 1.4 | -4.1 | 6.9 | 3.6 | 4.6 | 4.4 | 3.3 | 8.4 | 5.7 | -3 | -2.8 | 10.3 | 0.5 | 10.9 | 6.7 | 5.6 | 3.5 | 6.7 | 7.9
12 | Cc1cc(Nc2ncc(Cl)c(Nc3ccccc3S(=O)(=O)C(C)C)n2)c(OC(C)C)cc1C1CCNCC1 [Ceritinib] (top concentration 2500 nM) | 1.86 | -3.44 | -0.74 | -2.64 | 3.06 | 0.36 | -3.44 | -3.44 | -2.04 | -3.44 | -0.04 | -3.44 | 2.86 | 5.16 | -2.04 | -3.44 | -0.74 | -3.24 | -2.54 | -0.94
13 | Nc1nc(Cl)nc2c1ncn2[C@@H]1O[C@H](CO)[C@@H](O)[C@@H]1F [Clofarabine] (top concentration 10000 nM) | -8.5 | -5.6 | 6.5 | -7.1 | 9.2 | 1 | 2.1 | 7.1 | 7.3 | 10.5 | 9.2 | 4.3 | 3 | -27.4 | 6.8 | 4.4 | 2.1 | 1.8 | -22.6 | 1.2
14 | CC1(COc2ccc3c(c2)ncn3-c2ccc3cccc(N4CCC(N)CC4)c3n2)COC1 [Crenolanib] (top concentration 10000 nM) | -3.12 | -7.62 | 0.68 | -3.42 | -3.92 | 12.9 | -2.62 | 2.08 | -0.02 | 0.88 | 3.28 | -0.82 | 0.48 | -3.62 | -1.12 | -0.22 | -4.02 | 0.08 | 1.28 | 7.78
15 | Cc1nc(Nc2ncc(C(=O)Nc3c(C)cccc3Cl)s2)cc(N2CCN(CCO)CC2)n1 [Dasatinib] (top concentration 1000 nM) | -2.8 | -2.8 | -2.8 | -1.7 | -2.8 | -2.8 | -1.7 | -0.7 | 3.1 | 30.2 | -2.8 | 17 | -2.8 | 0.3 | 21.5 | -2.8 | 3.3 | 10.8 | 1.7 | -0.2
16 | CCc1cnn2c(NCc3ccc[n+]([O-])c3)cc(N3CCCC[C@H]3CCO)nc12 [Dinaciclib] (top concentration 1000 nM) | -4.34 | -7.04 | -4.04 | -7.74 | -3.64 | -2.24 | -6.44 | 1.26 | 1.26 | -3.64 | -3.74 | -1.54 | -4.14 | -1.74 | -0.64 | -2.24 | -2.04 | -5.94 | -0.34 | -6.64
17 | COc1cccc2c1C(=O)c1c(O)c3c(c(O)c1C2=O)C[C@@](O)(C(=O)CO)C[C@@H]3O[C@H]1C[C@H](N)[C@H](O)[C@H](C)O1 [Doxorubicin] (top concentration 1000 nM) | -0.42 | -1.82 | 9.08 | -2.12 | 5.48 | 7.48 | 5.08 | 15 | 7.48 | 11.4 | 10.4 | 11.3 | 3.98 | 7.18 | 10.6 | 16.1 | 3.38 | 3.08 | 0.78 | -0.12
